In paper PMC9653409, “Generative deep learning enables the discovery of a potent and selective RIPK1 inhibitor” (Nature Communications, 2022):
Several values for one entry are separate records, joined by “and”; a condition that tells them apart may be missing. Equal values may be shown once. Read-outs that look alike come from different tables or passages of the source.

Key:
[1] = biological target: panel of human kinases (kinase named in endpoint) (Homo sapiens, UniProt O43318); assay: Kinase inhibitory activity profiling of RI-962@10 µM (406 kinases, Eurofins); format: biochemical; conditions: 10 µM; read-out: Activity (%), TAK1(h)
Experimental: (§1) In vitro kinase activity assays were conducted through the Kinase Profiling Services provided by Eurofins (Eurofins, France). The protocol for the RIPK1 assay is briefly described as follows (Protocols for other kinases are very similar and can be found in http://www.eurofins.com/pharmadiscovery). RIPK1 kinase was incubated with the test compound in assay buffer containing 8 mM MOPS (pH 7.0), 0.2 mM EDTA, 250 μM […], 10 mM magnesium acetate, and 10 μM [γ-33P]-ATP for 15 min at room temperature. The reaction was initiated by the addition of the Mg/ATP mixture. After incubation for 40 min at room temperature, and the reaction was stopped by the addition of 3% phosphoric acid. A 10 μL portion of the reaction mixture was then spotted onto a P30 filter mat and washed four times for 4 min in 0.425% phosphoric acid and once in methanol prior to drying and scintillation counting.

[2] = biological target: panel of human kinases (kinase named in endpoint) (Homo sapiens, UniProt P12931, T341M); assay: as above; format: biochemical; conditions: 10 µM; read-out: Activity (%), Src(T341M)(h)
Experimental: as §1

[3] = biological target: panel of human kinases (kinase named in endpoint) (Homo sapiens, UniProt Q13237); assay: as above; format: biochemical; conditions: 10 µM; read-out: Activity (%), PRKG2(h)
Chain of panel of human kinases (kinase named in endpoint) (Homo sapiens, UniProt Q13237) (Q13237 whole entry): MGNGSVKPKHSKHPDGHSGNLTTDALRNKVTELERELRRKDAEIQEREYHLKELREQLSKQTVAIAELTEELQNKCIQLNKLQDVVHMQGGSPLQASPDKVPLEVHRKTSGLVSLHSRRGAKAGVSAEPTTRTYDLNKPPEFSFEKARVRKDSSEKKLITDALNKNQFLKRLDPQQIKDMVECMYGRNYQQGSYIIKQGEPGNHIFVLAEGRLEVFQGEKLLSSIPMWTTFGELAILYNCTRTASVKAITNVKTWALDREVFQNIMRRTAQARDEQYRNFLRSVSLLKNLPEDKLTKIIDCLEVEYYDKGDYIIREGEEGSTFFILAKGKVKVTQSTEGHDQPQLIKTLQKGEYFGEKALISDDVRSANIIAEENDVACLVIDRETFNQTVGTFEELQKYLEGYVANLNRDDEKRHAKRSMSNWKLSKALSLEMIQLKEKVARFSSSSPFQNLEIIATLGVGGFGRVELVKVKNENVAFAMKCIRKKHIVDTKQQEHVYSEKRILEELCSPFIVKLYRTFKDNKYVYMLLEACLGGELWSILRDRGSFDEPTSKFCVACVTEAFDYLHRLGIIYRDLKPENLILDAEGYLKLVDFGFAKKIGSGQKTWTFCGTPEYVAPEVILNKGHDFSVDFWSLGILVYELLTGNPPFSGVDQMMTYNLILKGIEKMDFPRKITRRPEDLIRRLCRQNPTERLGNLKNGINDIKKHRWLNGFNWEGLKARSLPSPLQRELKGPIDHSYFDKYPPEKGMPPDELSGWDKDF
Experimental: as §1

[4] = biological target: panel of human kinases (kinase named in endpoint) (Homo sapiens, UniProt Q7L7X3); assay: as above; format: biochemical; conditions: 10 µM; read-out: Activity (%), TAO1(h)
Experimental: as §1

[5] = biological target: panel of human kinases (kinase named in endpoint) (Homo sapiens, UniProt Q02750); assay: as above; format: biochemical; conditions: 10 µM; read-out: Activity (%), MEK1(h)
Chain of panel of human kinases (kinase named in endpoint) (Homo sapiens, UniProt Q02750) (Q02750 whole entry): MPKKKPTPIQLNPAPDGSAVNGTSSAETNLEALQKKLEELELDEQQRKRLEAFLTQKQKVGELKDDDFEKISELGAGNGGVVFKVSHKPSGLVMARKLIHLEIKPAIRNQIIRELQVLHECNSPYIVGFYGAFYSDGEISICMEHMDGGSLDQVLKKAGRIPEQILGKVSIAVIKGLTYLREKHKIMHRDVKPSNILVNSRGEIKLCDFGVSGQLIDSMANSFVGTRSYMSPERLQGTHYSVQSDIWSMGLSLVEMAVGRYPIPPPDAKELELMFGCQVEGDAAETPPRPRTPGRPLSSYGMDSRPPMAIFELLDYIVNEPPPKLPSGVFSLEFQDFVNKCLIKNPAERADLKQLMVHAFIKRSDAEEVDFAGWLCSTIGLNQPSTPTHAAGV
Experimental: as §1

HT29 cells = assay: Dual staining with CytoCalcein Violet 450 and 7-AAD after TSZ; format: cell-based; conditions: for Dead cell ratio (%): TSZ 24 h, replicates 1-4
Experimental: The assay of dual staining with CytoCalcein Violet 450 and 7-AAD was performed in a 24-well cell culture plate. Cells were plated in each well and cultured at 37 °C overnight. […] Then use CytoCalcein Violet 450 and 7-AAD to double stain the HT29 cells and observe under the microscope. All images were acquired with an Eclipse Ci-L microscope (Nikon, Japan). The dead cells were measured with Image J software, and the data was analyzed with GraphPad software. The experiment was repeated three times.

MLK2 = MLK2 (Homo sapiens, UniProt Q02779); assay: Kinase assay (Eurofins); format: biochemical
Chain of MLK2 (Q02779 whole entry): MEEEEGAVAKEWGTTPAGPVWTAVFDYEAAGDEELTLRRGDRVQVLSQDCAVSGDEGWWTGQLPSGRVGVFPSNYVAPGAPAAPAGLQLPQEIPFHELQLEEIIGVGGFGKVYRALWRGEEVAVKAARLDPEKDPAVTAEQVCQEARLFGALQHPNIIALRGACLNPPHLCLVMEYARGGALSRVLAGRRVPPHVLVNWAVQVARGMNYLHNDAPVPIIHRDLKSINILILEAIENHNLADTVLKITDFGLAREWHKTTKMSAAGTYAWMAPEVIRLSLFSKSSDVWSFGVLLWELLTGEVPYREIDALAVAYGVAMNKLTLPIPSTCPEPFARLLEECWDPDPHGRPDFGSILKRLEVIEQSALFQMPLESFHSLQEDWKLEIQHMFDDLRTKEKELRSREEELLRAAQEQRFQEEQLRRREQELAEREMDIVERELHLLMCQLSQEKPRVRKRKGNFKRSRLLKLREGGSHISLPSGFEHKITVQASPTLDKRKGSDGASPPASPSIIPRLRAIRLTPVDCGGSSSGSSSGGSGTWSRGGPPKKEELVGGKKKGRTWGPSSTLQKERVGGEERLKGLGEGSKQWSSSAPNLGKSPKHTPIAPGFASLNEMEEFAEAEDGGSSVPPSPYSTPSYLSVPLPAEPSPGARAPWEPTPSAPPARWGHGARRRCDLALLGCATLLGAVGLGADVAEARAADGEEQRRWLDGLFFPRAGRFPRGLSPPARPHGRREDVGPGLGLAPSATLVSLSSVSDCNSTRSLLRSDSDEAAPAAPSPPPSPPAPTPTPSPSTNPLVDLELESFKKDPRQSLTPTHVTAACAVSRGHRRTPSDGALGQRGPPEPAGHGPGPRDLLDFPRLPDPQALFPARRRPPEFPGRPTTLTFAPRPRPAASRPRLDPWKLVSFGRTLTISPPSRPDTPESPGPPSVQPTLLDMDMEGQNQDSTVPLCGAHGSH
Experimental: as §1

MLK1 = MLK1 (Homo sapiens, UniProt P80192); assay: Kinase assay (Eurofins); format: biochemical
Chain of MLK1 (P80192 whole entry): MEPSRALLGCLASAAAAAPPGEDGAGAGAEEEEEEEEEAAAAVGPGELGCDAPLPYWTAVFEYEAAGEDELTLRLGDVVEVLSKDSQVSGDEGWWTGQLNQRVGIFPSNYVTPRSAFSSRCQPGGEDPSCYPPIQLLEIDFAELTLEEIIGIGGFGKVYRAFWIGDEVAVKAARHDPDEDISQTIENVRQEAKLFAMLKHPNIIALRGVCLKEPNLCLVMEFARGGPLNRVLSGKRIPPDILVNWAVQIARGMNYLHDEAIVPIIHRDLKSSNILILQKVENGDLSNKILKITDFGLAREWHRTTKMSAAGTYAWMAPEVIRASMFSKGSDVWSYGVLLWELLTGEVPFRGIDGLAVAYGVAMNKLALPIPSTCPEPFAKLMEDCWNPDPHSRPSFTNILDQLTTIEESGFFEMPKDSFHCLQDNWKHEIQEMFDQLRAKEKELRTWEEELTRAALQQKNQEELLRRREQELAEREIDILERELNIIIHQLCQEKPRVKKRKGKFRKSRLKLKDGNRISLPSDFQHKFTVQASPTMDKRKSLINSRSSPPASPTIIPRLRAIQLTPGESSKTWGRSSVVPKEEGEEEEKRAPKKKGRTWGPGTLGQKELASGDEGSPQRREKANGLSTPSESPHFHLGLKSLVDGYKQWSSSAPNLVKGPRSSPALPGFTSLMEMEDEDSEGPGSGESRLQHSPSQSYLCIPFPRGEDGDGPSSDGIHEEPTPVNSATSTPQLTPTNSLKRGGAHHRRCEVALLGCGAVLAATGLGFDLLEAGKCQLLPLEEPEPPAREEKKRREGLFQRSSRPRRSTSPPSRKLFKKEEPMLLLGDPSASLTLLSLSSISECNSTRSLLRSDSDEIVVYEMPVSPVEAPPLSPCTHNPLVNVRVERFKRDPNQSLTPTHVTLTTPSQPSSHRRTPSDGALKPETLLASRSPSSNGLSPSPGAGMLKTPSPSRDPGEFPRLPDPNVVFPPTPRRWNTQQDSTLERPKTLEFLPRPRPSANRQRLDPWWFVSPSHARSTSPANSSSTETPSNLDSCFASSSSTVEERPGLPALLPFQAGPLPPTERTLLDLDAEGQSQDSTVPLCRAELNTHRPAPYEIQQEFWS
Experimental: as §1

MLK3 = MLK3 (Homo sapiens, UniProt Q16584); assay: Kinase assay (Eurofins); format: biochemical
Chain of MLK3 (Q16584 whole entry): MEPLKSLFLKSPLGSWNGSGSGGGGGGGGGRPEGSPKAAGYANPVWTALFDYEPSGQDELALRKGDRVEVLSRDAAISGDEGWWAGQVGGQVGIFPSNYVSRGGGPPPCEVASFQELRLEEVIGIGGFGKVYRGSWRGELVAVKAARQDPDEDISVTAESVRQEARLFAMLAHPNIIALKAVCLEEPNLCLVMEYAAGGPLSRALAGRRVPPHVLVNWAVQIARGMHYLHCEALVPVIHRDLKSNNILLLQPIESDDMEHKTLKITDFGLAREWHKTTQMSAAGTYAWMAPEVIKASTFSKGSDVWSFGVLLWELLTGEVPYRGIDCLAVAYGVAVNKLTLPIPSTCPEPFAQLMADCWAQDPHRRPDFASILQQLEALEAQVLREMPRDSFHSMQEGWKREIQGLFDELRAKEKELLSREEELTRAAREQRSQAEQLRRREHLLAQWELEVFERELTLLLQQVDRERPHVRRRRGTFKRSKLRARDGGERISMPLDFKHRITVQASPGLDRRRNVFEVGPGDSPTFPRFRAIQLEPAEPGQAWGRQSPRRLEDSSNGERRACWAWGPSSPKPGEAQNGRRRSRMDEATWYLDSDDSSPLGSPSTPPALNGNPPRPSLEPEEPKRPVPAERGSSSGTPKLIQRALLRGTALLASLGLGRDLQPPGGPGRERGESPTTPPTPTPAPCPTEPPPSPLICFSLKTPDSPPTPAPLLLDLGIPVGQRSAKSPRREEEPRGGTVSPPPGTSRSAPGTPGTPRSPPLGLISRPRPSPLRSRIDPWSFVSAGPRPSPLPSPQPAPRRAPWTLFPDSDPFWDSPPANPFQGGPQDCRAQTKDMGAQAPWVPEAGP
Experimental: as §1

RIPK2 = RIPK2 (Homo sapiens, UniProt O43353); assay: Kinase assay (Eurofins); format: biochemical
Chain of RIPK2 (O43353 whole entry): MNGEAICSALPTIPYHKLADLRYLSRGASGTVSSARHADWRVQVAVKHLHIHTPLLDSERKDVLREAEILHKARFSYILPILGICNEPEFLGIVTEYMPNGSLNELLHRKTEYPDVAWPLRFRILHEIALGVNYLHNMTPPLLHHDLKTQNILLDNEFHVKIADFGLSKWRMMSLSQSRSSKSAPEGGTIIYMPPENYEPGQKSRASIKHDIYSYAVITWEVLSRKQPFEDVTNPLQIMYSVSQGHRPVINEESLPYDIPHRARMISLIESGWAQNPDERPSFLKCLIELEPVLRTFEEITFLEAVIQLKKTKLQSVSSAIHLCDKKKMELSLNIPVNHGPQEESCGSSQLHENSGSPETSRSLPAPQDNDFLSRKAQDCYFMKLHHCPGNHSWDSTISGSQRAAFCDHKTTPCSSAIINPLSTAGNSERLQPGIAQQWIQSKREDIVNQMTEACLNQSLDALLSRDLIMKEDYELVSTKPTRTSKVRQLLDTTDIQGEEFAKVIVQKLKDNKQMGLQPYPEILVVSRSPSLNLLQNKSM
Experimental: as §1

[6] = Pharmacokinetics in Sprague-Dawley rats; format: in vivo; conditions: for Plasma Concentraion / concentration at 0.083 h / concentration at 0.5 h / concentration at 1 h / concentration at 2 h / concentration at 4 h / concentration at 6 h / concentration at 8 h: animals 1-3; for concentration at 0.083 h / concentration at 0.5 h / concentration at 1 h / concentration at 2 h / concentration at 4 h / concentration at 6 h / concentration at 8 h: read-out: Plasma Concentraion; for MRT inf: read-out: MRT0-∞
Experimental: The PK properties of compounds were examined in male Sprague-Dawley rats (n = 3 per group, weight: 180–220 g). Compounds were dissolved in saline with 5% (v/v) DMSO plus 40% (v/v) PEG400. The animals were administered with a single dose of 5 mg/kg (intravenous injection (i.v.)), 20 mg/kg (intraperitoneal injection (i.p.) or oral gavage (p.o.)). Blood samples were collected at 0.083, 0.25, 0.5, 1, 2, 4, 6, 8, 10 and 24 h, and centrifuged to isolate plasma. Subsequently, the plasma compound concentrations were determined by LC-MS/MS-13 (TQ5500, SCIEX), and the PK parameters were calculated using Phoenix WinNonlin 7.0.

DSS-induced IBD = DSS-induced IBD mouse model: survival; format: in vivo, C57BL/6 female mice; parameters: key to 1 means death, 0 means survival: 1 means death; 0 means survival
Experimental: DSS (3% w/v) was administered in drinking water ad libitum for 7 d (from day 0 to day 7). DSS solution was replaced three times on day 2, day 4, and day 6. […] Three mice in each group were killed at random on day 7, and distal colon tissues were collected for analysis. The mice weight and survival rate were recorded daily.

[7] = male, Sprague-Dawley, rat, plasma, ip, 20 mg/kg
[8] = male, Sprague-Dawley, rat, plasma, iv, 5 mg/kg
[9] = male, Sprague-Dawley, rat, plasma, po, 20 mg/kg

Work on `CC(C)C(=O)Nc1nc2cc(-c3ccc4c(c3)c(C(=O)NC(C)c3ccccc3)cn4C)ccn2n1` (centres unmarked) [RI-962] yielded an activity at 10 µM [1] of 90%, an activity at 10 µM [2] of 100% and an activity at 10 µM [3] of 105%. For the same compound, the activity at 10 µM [4] was 81%, the activity at 10 µM [5] was 105% and the “Dead cell ratio (%)” value (HT29 cells; 3 nM) was 15.55% and 9.32% and 10.06% and 11.13%. For the same compound, the “Dead cell ratio (%)” value (HT29 cells; 10 nM, listed as RI-963) was 9.02% and 6.38% and 5.61% and 6.01%, the “TSZ-induced necroptosis, dual staining” value (HT29 cells; HT29, 24 h) was “inhibited TSZ-induced necroptosis and improved cell survival in a concentration-dependent manner” and the activity at 10 µM (MLK2; 10 µM, read-out: Activity (%), MLK2(h)) was 29%. For the same compound, the IC50 (MLK2; MLK2) was greater than 10 µM, the activity at 10 µM (MLK1; 10 µM, read-out: Activity (%), MLK1(h)) was 36% and the IC50 (MLK1; MLK1) was greater than 10 µM. For the same compound, the “folds less potent against MLK3 than against RIPK1” value (MLK3) was 107 folds, the activity at 10 µM (MLK3; 10 µM, read-out: Activity (%), MLK3(h)) was 20% and the IC50 (MLK3; MLK3) was 3.75 µM. For the same compound, the activity at 10 µM (RIPK2; 10 µM, read-out: Activity (%), RIPK2(h)) was 79%, the IC50 (RIPK2; RIPK2) was greater than 10 µM and the “Plasma Concentraion” value ([6]; Supplementary Figure 7 panel a, 0.083 h) was 11.1812 µg/mL and 13.5032 µg/mL. For the same compound, the “Plasma Concentraion” value ([6]; Supplementary Figure 7 panel a, 0.5 h) was 2.0227 µg/mL and 2.49356 µg/mL, the “Plasma Concentraion” value ([6]; Supplementary Figure 7 panel a, 1 h) was 0.324429 µg/mL and 0.36825 µg/mL and the “Plasma Concentraion” value ([6]; Supplementary Figure 7 panel a, 2 h) was 0.0531161 µg/mL and 0.0498208 µg/mL. The “Plasma Concentraion” value ([6]; Supplementary Figure 7 panel a, 4 h) was 0.020793 µg/mL and 0.012876 µg/mL, the “Plasma Concentraion” value ([6]; Supplementary Figure 7 panel a, 6 h) was 0.0121272 µg/mL and 0.007691 µg/mL and the “Plasma Concentraion” value ([6]; Supplementary Figure 7 panel a, 8 h) was 0.005677 µg/mL and 0.003748 µg/mL. For the same compound, the “Plasma Concentraion” value ([6]; Supplementary Figure 7 panel b, 0.083 h) was 0.127196 µg/mL and 0.183609 µg/mL, the “Plasma Concentraion” value ([6]; Supplementary Figure 7 panel b, 0.5 h) was 0.350948 µg/mL and 0.617101 µg/mL and the “Plasma Concentraion” value ([6]; Supplementary Figure 7 panel b, 6 h) was 0.0117068 µg/mL and 0.0135938 µg/mL. For the same compound, the “Plasma Concentraion” value ([6]; Supplementary Figure 7 panel b, 8 h) was 0.008501 µg/mL and 0.0053 µg/mL, the “Plasma Concentraion” value ([6]; Supplementary Figure 7 panel c, 0.083 h) was 0.84169 µg/mL and 1.2246 µg/mL and the “Plasma Concentraion” value ([6]; Supplementary Figure 7 panel c, 0.5 h) was 4.1493 µg/mL and 2.8232 µg/mL. For the same compound, the “Plasma Concentraion” value ([6]; Supplementary Figure 7 panel c, 1 h) was 3.6801 µg/mL and 2.363 µg/mL, the “Plasma Concentraion” value ([6]; Supplementary Figure 7 panel c, 2 h) was 0.63578 µg/mL and 0.70171 µg/mL and the “Plasma Concentraion” value ([6]; Supplementary Figure 7 panel c, 4 h) was 0.2267 µg/mL and 0.11563 µg/mL. For the same compound, the concentration at 0.083 h ([6]; male, Sprague-Dawley, rat, plasma, intraperitoneal, 20 mg/kg, Supplementary Figure 7 panel c, 0.083 h) was 1.01 µg/mL, the concentration at 0.5 h ([6]; male, Sprague-Dawley, rat, plasma, intraperitoneal, 20 mg/kg, Supplementary Figure 7 panel c, 0.5 h) was 3.84 µg/mL and the concentration at 1 h ([6]; male, Sprague-Dawley, rat, plasma, intraperitoneal, 20 mg/kg, Supplementary Figure 7 panel c, 1 h) was 3.08 µg/mL. The concentration at 2 h ([6]; male, Sprague-Dawley, rat, plasma, intraperitoneal, 20 mg/kg, Supplementary Figure 7 panel c, 2 h) was 0.737 µg/mL, the concentration at 4 h ([6]; male, Sprague-Dawley, rat, plasma, intraperitoneal, 20 mg/kg, Supplementary Figure 7 panel c, 4 h) was 0.229 µg/mL and the concentration at 0.083 h ([6]; male, Sprague-Dawley, rat, plasma, intravenous, 5 mg/kg, Supplementary Figure 7 panel a, 0.083 h) was 11.8 µg/mL. It also gave a concentration at 0.5 h ([6]; male, Sprague-Dawley, rat, plasma, intravenous, 5 mg/kg, Supplementary Figure 7 panel a, 0.5 h) of 1.61 µg/mL, a concentration at 1 h ([6]; male, Sprague-Dawley, rat, plasma, intravenous, 5 mg/kg, Supplementary Figure 7 panel a, 1 h) of 0.291 µg/mL and a concentration at 2 h ([6]; male, Sprague-Dawley, rat, plasma, intravenous, 5 mg/kg, Supplementary Figure 7 panel a, 2 h) of 0.0596 µg/mL. The concentration at 4 h ([6]; male, Sprague-Dawley, rat, plasma, intravenous, 5 mg/kg, Supplementary Figure 7 panel a, 4 h) was 0.0206 µg/mL, the concentration at 6 h ([6]; male, Sprague-Dawley, rat, plasma, intravenous, 5 mg/kg, Supplementary Figure 7 panel a, 6 h) was 0.0116 µg/mL and the concentration at 8 h ([6]; male, Sprague-Dawley, rat, plasma, intravenous, 5 mg/kg, Supplementary Figure 7 panel a, 8 h) was 0.0064 µg/mL. For the same compound, the AUC(0-inf) [6, 7] was 6.61 ± 1.12 µg·h/mL, the AUC(0-t) [6, 7] was 6.46 µg·h/mL and the Cmax [6, 7] was 3.6 ± 0.693 µg/mL. It also gave a Tmax [6, 7] of 0.5 h, a bioavailability [6, 7] of 35.7 ± 6.3% and a half-life [6, 7] of 8.5 ± 1.6 h. For the same compound, the MRT inf [6, 7] was 2.8 ± 0.1 h, the AUC(0-inf) [6, 8] was 4.54 ± 0.546 µg·h/mL and the AUC(0-t) [6, 8] was 4.53 µg·h/mL. It also gave a Cmax [6, 8] of 12.2 ± 1.2 µg/mL, a Tmax [6, 8] of 0.1 h and a clearance [6, 8] of 1.11 ± 0.126 L/h/kg. It also gave a half-life [6, 8] of 2.1 ± 0.2 h, an MRT inf [6, 8] of 0.4 h and a Vd ([6]; male, Sprague-Dawley, rat, plasma, iv, 5 mg/kg, read-out: Vss) of 0.4 ± 0.1 L/kg. It also gave a concentration at 0.083 h ([6]; male, Sprague-Dawley, rat, plasma, oral, 20 mg/kg, Supplementary Figure 7 panel b, 0.083 h) of 0.113 µg/mL, a concentration at 0.5 h ([6]; male, Sprague-Dawley, rat, plasma, oral, 20 mg/kg, Supplementary Figure 7 panel b, 0.5 h) of 0.418 µg/mL and a concentration at 6 h ([6]; male, Sprague-Dawley, rat, plasma, oral, 20 mg/kg, Supplementary Figure 7 panel b, 6 h) of 0.0113 µg/mL. The concentration at 8 h ([6]; male, Sprague-Dawley, rat, plasma, oral, 20 mg/kg, Supplementary Figure 7 panel b, 8 h) was 0.00791 µg/mL, the AUC(0-inf) [6, 9] was 1.6 ± 0.896 µg·h/mL and the AUC(0-t) [6, 9] was 1.59 µg·h/mL. The Cmax [6, 9] was 0.674 ± 0.425 µg/mL, the Tmax [6, 9] was 0.8 ± 1 h and the half-life [6, 9] was 1.3 ± 0.2 h. The MRT inf [6, 9] was 1.8 ± 0.2 h, the “AUC0–t” value ([6]; p.o., 20 mg/kg) was 1.5949 ± 0.8918 µg·h/mL and the “F (%)” value ([6]; p.o., 20 mg/kg) was 8.8 ± 5.0%. The survival rate (DSS-induced IBD; 40 mg/kg i.p. once a day for 10 d, 3% DSS 7 d) was 100% and the “1 means death, 0 means survival” value (DSS-induced IBD; Figure 9f, individual mice, time 14) was 0.
